Data reported in patent publication US10647747B2, “Cyclosporin derivatives and uses thereof” (S&T Global Inc., priority 2010, dated 2020).
Where two headings read alike, the source gives them in different places. *1 amine or outer side, *2 acyl side, *3 side chain or, on linkers, in order; H or OH if unused. Where a SMILES comes first, the peptide text is derived from it. [ ]: non-standard residue; d: D form. The star is where a group is joined. MeBmt = C/C=C/C[C@@H](C)[C@@H](O)[C@H](NC)C(=O)O; X15 = CSCOC(C)(C)C[C@@H](C(=O)[*:2])N(C)[*:1]; X3 = CC=CCC(C)C(O)C(C(=O)[*:2])N(C)[*:1]; X9 = C=CCOC(C)(C)CC(C(=O)[*:2])N(C)[*:1]; X5 = CSCOC(C)(C)CC(C(=O)[*:2])N(C)[*:1]; X7 = CN(C(SCCCN1CCOCC1)C(=O)[*:2])[*:1]; X4 = CCN(CC)CCSC(C(=O)[*:2])N(C)[*:1]; NMeI = CC[CH](C)[CH](NC)C(=O)O; NMeL = CN[CH](CC(C)C)C(=O)O; NMeV = CN[CH](C(=O)O)C(C)C; dNMeC = CN[C@H](CS)C(=O)O; Et2NCH2CH2 = CCN(CC)CC*; NMeC = CN[CH](CS)C(=O)O; Abu = CC[CH](N)C(=O)O

System: HCV replicon in cell line ET (luc-ubi-neo/ET), Huh7 human hepatoma
Test: HCV subgenomic replicon assay, luciferase end point
Type: cell-based
Details: read-out: Antiviral activity EC50
[1] = Table 16, HCV replicon luciferase
[2] = Hepatitis C virus, Huh-7, Table 14, HCV replicon luciferase
[3] = HCV subgenomic replicon, cell line ET (luc-ubi-neo/ET) Huh7, luciferase end point
[4] = Table 14, HCV replicon luciferase
[5] = Table 12, HCV replicon luciferase
[6] = Table 13, HCV replicon luciferase

CC=CCC(C)C(O)C1C(=O)NC(CC)C(=O)N(C)C(CSCCCCOCCN(CC)CC)C(=O)N(C)C(CC(C)(C)O)C(=O)NC(C(C)C)C(=O)N(C)C(CC(C)C)C(=O)NC(C)C(=O)NC(C)C(=O)N(C)C(CC(C)C)C(=O)N(C)C(CC(C)C)C(=O)N(C)C(C(C)C)C(=O)N1C (centres unmarked)
EC50 [1]: 50 nM

C/C=C/C[C@@H](C)[C@@H](O)[C@H]1C(=O)N[C@@H](CC)C(=O)N(C)[C@H](CSCCCN(CC(C)C)CC(C)C)C(=O)N(C)[C@@H](CC(C)(C)O)C(=O)N[C@@H](C(C)C)C(=O)N(C)[C@@H](CC(C)C)C(=O)N[C@@H](C)C(=O)N[C@H](C)C(=O)N(C)[C@@H](CC(C)C)C(=O)N(C)[C@@H](CC(C)C)C(=O)N(C)[C@@H](C(C)C)C(=O)N1C
EC50 [1]: 40 nM

C/C=C/C[C@@H](C)[C@@H](O)[C@H]1C(=O)N[C@@H](CC)C(=O)N(C)[C@H](CSCCN(CC)CC)C(=O)N(C)[C@@H](CC(C)(C)OCSC)C(=O)N[C@@H](C(C)C)C(=O)N(C)[C@@H](CC(C)C)C(=O)N[C@@H](C)C(=O)N[C@H](C)C(=O)N(C)[C@@H](CC(C)C)C(=O)N(C)[C@@H](CC(C)C)C(=O)N(C)[C@@H](C(C)C)C(=O)N1C (cyclo(A[dA][NMeL][NMeL][NMeV][MeBmt][Abu][dNMeC](Et2NCH2CH2)[X15]V[NMeL]))
EC50 [2]: 20 nM

CC=CCC(C)C(O)C1C(=O)NC(CC)C(=O)N(C)C(COCCCN(CC)CC)C(=O)N(C)C(CC(C)(C)OC)C(=O)NC(C(C)C)C(=O)N(C)C(CC(C)C)C(=O)NC(C)C(=O)NC(C)C(=O)N(C)C(CC(C)C)C(=O)N(C)C(CC(C)C)C(=O)N(C)C(C(C)C)C(=O)N1C (centres unmarked)
EC50 [3]: 100 nM

CC=CCC(C)C(O)C1C(=O)NC(CC)C(=O)N(C)C(COCCN(C)C)C(=O)N(C)C(CC(C)(C)O)C(=O)NC(C(C)C)C(=O)N(C)C(CC(C)C)C(=O)NC(C)C(=O)NC(C)C(=O)N(C)C(CC(C)C)C(=O)N(C)C(CC(C)C)C(=O)N(C)C(C(C)C)C(=O)N1C (centres unmarked)
EC50 [3]: 240 nM

C/C=C/C[C@@H](C)[C@@H](O)[C@H]1C(=O)N[C@@H](CC)C(=O)N(C)[C@H](COCCN(C)C)C(=O)N(C)[C@@H](CC(C)(C)OC)C(=O)N[C@@H](C(C)C)C(=O)N(C)[C@@H](CC(C)C)C(=O)N[C@@H](C)C(=O)N[C@H](C)C(=O)N(C)[C@@H](CC(C)C)C(=O)N(C)[C@@H](CC(C)C)C(=O)N(C)[C@@H](C(C)C)C(=O)N1C
EC50 [3]: 150 nM

CC=CCC(C)C(O)C1C(=O)NC(CC)C(=O)N(C)C(CSCCCN2CCCC2)C(=O)N(C)C(CC(C)(C)OC)C(=O)NC(C(C)C)C(=O)N(C)C(CC(C)C)C(=O)NC(C)C(=O)NC(C)C(=O)N(C)C(CC(C)C)C(=O)N(C)C(CC(C)C)C(=O)N(C)C(C(C)C)C(=O)N1C (centres unmarked)
EC50 [3]: 100 nM

C/C=C/C[C@@H](C)[C@@H](O)[C@H]1C(=O)N[C@@H](CC)C(=O)N(C)[C@H](COCCCN(C)C)C(=O)N(C)[C@@H](CC(C)(C)O)C(=O)N[C@@H](C(C)C)C(=O)N(C)[C@@H](CC(C)C)C(=O)N[C@@H](C)C(=O)N[C@H](C)C(=O)N(C)[C@@H](CC(C)C)C(=O)N(C)[C@@H](CC(C)C)C(=O)N(C)[C@@H](C(C)C)C(=O)N1C
EC50 [3]: 260 nM

C/C=C/C[C@@H](C)[C@@H](O)[C@H]1C(=O)N[C@@H](CC)C(=O)N(C)[C@H](CSCCN(C)C)C(=O)N(C)[C@@H](CC(C)(C)O)C(=O)N[C@@H](C(C)C)C(=O)N(C)[C@@H](CC(C)C)C(=O)N[C@@H](C)C(=O)N[C@H](C)C(=O)N(C)[C@@H](CC(C)C)C(=O)N(C)[C@@H](CC(C)C)C(=O)N(C)[C@@H](C(C)C)C(=O)N1C (single isomer, unassigned; isomer b) [listing 1 of 2 here]
EC50 [4]: 50 nM

CC=CCC(C)C(O)C1C(=O)NC(CC)C(=O)N(C)C(SCCN(CC(C)C)C(C)C)C(=O)N(C)C(CC(C)C)C(=O)NC(C(C)C)C(=O)N(C)C(CC(C)C)C(=O)NC(C)C(=O)NC(C)C(=O)N(C)C(CC(C)C)C(=O)N(C)C(CC(C)C)C(=O)N(C)C(C(C)C)C(=O)N1C [(S)-2-(N-iso-Butyl-N-iso-propylamino)ethylthio-Sar]-3-cyclosporin]
EC50 [5]: 480 nM

C/C=C/C[C@@H](C)[C@@H](O)[C@H]1C(=O)N[C@@H](CC)C(=O)N(C)[C@H](CSCCN(C)C)C(=O)N(C)[C@@H](CC(C)(C)O)C(=O)N[C@@H](C(C)C)C(=O)N(C)[C@@H](CC(C)C)C(=O)N[C@@H](C)C(=O)N[C@H](C)C(=O)N(C)[C@@H](CC(C)C)C(=O)N(C)[C@@H](CC(C)C)C(=O)N(C)[C@@H](C(C)C)C(=O)N1C (single isomer, unassigned; isomer b) [listing 2 of 2 here]
EC50 [3]: 130 nM

C/C=C/C[C@@H](C)[C@@H](O)[C@H]1C(=O)N[C@@H](CC)C(=O)N(C)[C@H](COCCN(CC)CC)C(=O)N(C)[C@@H](CC(C)(C)OC)C(=O)N[C@@H](C(C)C)C(=O)N(C)[C@@H](CC(C)C)C(=O)N[C@@H](C)C(=O)N[C@H](C)C(=O)N(C)[C@@H](CC(C)C)C(=O)N(C)[C@@H](CC(C)C)C(=O)N(C)[C@@H](C(C)C)C(=O)N1C
EC50 [2]: 20 nM

C=CCOC(C)(C)CC1C(=O)NC(C(C)C)C(=O)N(C)C(CC(C)C)C(=O)NC(C)C(=O)NC(C)C(=O)N(C)C(CC(C)C)C(=O)N(C)C(CC(C)C)C(=O)N(C)C(C(C)C)C(=O)N(C)C(C(O)C(C)CC=CC)C(=O)NC(CC)C(=O)N(C)C(SCCCN2CCOCC2)C(=O)N1C [[(S)-3-(N-Morpholino)propylthio-Sar]-3-[(γ-allyloxy)-N-MeLeu]-4-cyclosporin] (cyclo([X3][Abu][X7][X9]V[NMeL]AA[NMeL][NMeL][NMeV]); configuration not given here)
EC50 [6]: 150 nM

CC=CCC(C)C(O)C1C(=O)NC(CC)C(=O)N(C)C(CSCCCN(C)C)C(=O)N(C)C(CC(C)(C)OC)C(=O)NC(C(C)C)C(=O)N(C)C(CC(C)C)C(=O)NC(C)C(=O)NC(C)C(=O)N(C)C(CC(C)C)C(=O)N(C)C(CC(C)C)C(=O)N(C)C(C(C)C)C(=O)N1C (centres unmarked)
EC50 [3]: 90 nM

CC=CCC(C)C(O)C1C(=O)NC(CC)C(=O)N(C)C(SCCCN2CCOCC2)C(=O)N(C)C(CC(C)(C)OCSC)C(=O)NC(C(C)C)C(=O)N(C)C(CC(C)C)C(=O)NC(C)C(=O)NC(C)C(=O)N(C)C(CC(C)C)C(=O)N(C)C(CC(C)C)C(=O)N(C)C(C(C)C)C(=O)N1C (centres unmarked) (cyclo([X3][Abu][X7][X5]V[NMeL]AA[NMeL][NMeL][NMeV]); configuration not given here)
EC50 [6]: 160 nM

C/C=C/C[C@@H](C)[C@@H](O)[C@H]1C(=O)N[C@@H](CC)C(=O)N(C)[C@H](CSCCCCO)C(=O)N(C)[C@@H](CC(C)(C)O)C(=O)N[C@@H](C(C)C)C(=O)N(C)[C@@H](CC(C)C)C(=O)N[C@@H](C)C(=O)N[C@H](C)C(=O)N(C)[C@@H](CC(C)C)C(=O)N(C)[C@@H](CC(C)C)C(=O)N(C)[C@@H](C(C)C)C(=O)N1C [[(S)-(4-Hydroxylbutylthio)methyl-Sar]-3-[(γ-hydroxy)-N-MeLeu]-4-cyclosporin]
EC50 [1]: 20 nM

C/C=C/C[C@@H](C)[C@@H](O)[C@H]1C(=O)N[C@@H](CC)C(=O)N(C)[C@H](COCCCN2CCCC2)C(=O)N(C)[C@@H](CC(C)(C)O)C(=O)N[C@@H](C(C)C)C(=O)N(C)[C@@H](CC(C)C)C(=O)N[C@@H](C)C(=O)N[C@H](C)C(=O)N(C)[C@@H](CC(C)C)C(=O)N(C)[C@@H](CC(C)C)C(=O)N(C)[C@@H](C(C)C)C(=O)N1C
EC50 [3]: 220 nM | EC50 [4]: 120 nM

C/C=C/C[C@@H](C)[C@@H](O)[C@H]1C(=O)N[C@@H](CC)C(=O)N(C)[C@H](CSCCCN(CC)CC)C(=O)N(C)[C@@H](CC(C)(C)O)C(=O)N[C@@H](C(C)C)C(=O)N(C)[C@@H](CC(C)C)C(=O)N[C@@H](C)C(=O)N[C@H](C)C(=O)N(C)[C@@H](CC(C)C)C(=O)N(C)[C@@H](CC(C)C)C(=O)N(C)[C@@H](C(C)C)C(=O)N1C [listing 1 of 2 here]
EC50 [2]: 30 nM

C/C=C/C[C@@H](C)[C@@H](O)[C@H]1C(=O)N[C@@H](CC)C(=O)N(C)[C@H](CSCCCN(CC)CC)C(=O)N(C)[C@@H](CC(C)(C)O)C(=O)N[C@@H](C(C)C)C(=O)N(C)[C@@H](CC(C)C)C(=O)N[C@@H](C)C(=O)N[C@H](C)C(=O)N(C)[C@@H](CC(C)C)C(=O)N(C)[C@@H](CC(C)C)C(=O)N(C)[C@@H](C(C)C)C(=O)N1C [listing 2 of 2 here]
EC50 [3]: 80 nM

(S)-2-(N,N-Diethylamino)ethylthio-Sar]-3-[N-MeIle]-4-cyclosporin
EC50 [5]: 40 nM

CC=CCC(C)C(O)C1C(=O)NC(CC)C(=O)N(C)C(CSCCCN(CC)C(C)C)C(=O)N(C)C(CC(C)(C)O)C(=O)NC(C(C)C)C(=O)N(C)C(CC(C)C)C(=O)NC(C)C(=O)NC(C)C(=O)N(C)C(CC(C)C)C(=O)N(C)C(CC(C)C)C(=O)N(C)C(C(C)C)C(=O)N1C (centres unmarked)
EC50 [3]: 60 nM

CC=CCC(C)C(O)C1C(=O)NC(CC)C(=O)N(C)C(CSCCN(CC)CC)C(=O)N(C)C(C(C)CC)C(=O)NC(C(C)C)C(=O)N(C)C(CC(C)C)C(=O)NC(C)C(=O)NC(C)C(=O)N(C)C(CC(C)C)C(=O)N(C)C(CC(C)C)C(=O)N(C)C(C(C)C)C(=O)N1C [[(S)-(2-(N,N-Diethylamino)ethylthio)methyl-Sar]-3-[N-MeIle]-4-cyclosporin] (cyclo([X3][Abu][NMeC](Et2NCH2CH2)[NMeI]V[NMeL]AA[NMeL][NMeL][NMeV]); configuration not given here)
EC50 [3]: 100 nM

CC=CCC(C)C(O)C1C(=O)NC(CC)C(=O)N(C)C(COCCN2CCCCC2)C(=O)N(C)C(CC(C)(C)O)C(=O)NC(C(C)C)C(=O)N(C)C(CC(C)C)C(=O)NC(C)C(=O)NC(C)C(=O)N(C)C(CC(C)C)C(=O)N(C)C(CC(C)C)C(=O)N(C)C(C(C)C)C(=O)N1C [[(R)-(2-(N-Piperidinyl)ethoxy)methyl-Sar]-3-[(γ-hydroxy)-N-MeLeu]-4-cyclosporin]
EC50 [3]: 140 nM

C/C=C/C[C@@H](C)[C@@H](O)[C@H]1C(=O)N[C@@H](CC)C(=O)N(C)[C@@H](CSCCN(CC)CC)C(=O)N(C)[C@@H](CC(C)(C)O)C(=O)N[C@@H](C(C)C)C(=O)N(C)[C@@H](CC(C)C)C(=O)N[C@@H](C)C(=O)N[C@H](C)C(=O)N(C)[C@@H](CC(C)C)C(=O)N(C)[C@@H](CC(C)C)C(=O)N(C)[C@@H](C(C)C)C(=O)N1C (single isomer, unassigned; isomer a)
EC50 [4]: 2120 nM

CC=CCC(C)C(O)C1C(=O)NC(CC)C(=O)N(C)C(SCCN(CC)CC)C(=O)N(C)C(CC(C)(C)OCSC)C(=O)NC(C(C)C)C(=O)N(C)C(CC(C)C)C(=O)NC(C)C(=O)NC(C)C(=O)N(C)C(CC(C)C)C(=O)N(C)C(CC(C)C)C(=O)N(C)C(C(C)C)C(=O)N1C (centres unmarked) (cyclo([X3][Abu][X4][X5]V[NMeL]AA[NMeL][NMeL][NMeV]); configuration not given here)
EC50 [6]: 130 nM
